Series [1] in a line: Elimination half-life of the active ingredient in man. The note with it: human, in vivo. From the text: The active ingredient of the invention may be administered periodically, e.g. weekly or biweekly, or daily or several times a day, depending on the patient's needs. […] Therefore, a periodical treatment, e.g. weekly, may be satisfactory.
The nature of series [2]: Plasma concentrations following 24 h levosimendan infusion in heart failure patients. Format: in vivo, human. The note with it: levosimendan 0.2 μg/kg/min for 24 hours; for half-life: human, plasma, intravenous, 0.2 ug/kg, FIG. 1, read-out: elimination half-life (converted). The procedure: Plasma concentrations of levosimendan and its active metabolite (R)-N-[4-(1,4,5,6-tetrahydro-4-methyl-6-oxo-3-pyridazinyl)phenyl]acetamide (OR-1896) following administration of 0.2 μg/kg/min of levosimendan for 24 hours in heart failure patients are shown in FIG. 1.

The test system of a further series is plasma proteins. The experiment in a line: Plasma protein binding. The format is in vitro ADME. The note with it: read-out: bound to plasma proteins (converted). From the text: It is known that the favourable hemodynamic effects following intravenous administration of levosimendan are seen considerably longer than levosimendan concentrations are observed in plasma. […] However, it has also been discovered that only about 30% of the active metabolite is bound to plasma proteins whereas as much as 98% of levosimendan is bound to plasma proteins. Therefore, the active free concentration of the active metabolite in plasma is proportionally much higher than that of levosimendan.

Series [3] concerns congestive heart failure patients. Briefly: All-cause mortality (Kaplan Meier) in congestive heart failure patients, dobutamine controlled studies. The format is in vivo, human. Conditions: intravenous levosimendan 0.1-0.2 μg/kg/min for 24 hours vs dobutamine; FIG. 2.

For the compound `CC(=O)Nc1ccc(C2=NNC(=O)CC2C)cc1` (centres unmarked) [(I), N-[4-(1,4,5,6-tetrahydro-4-methyl-6-oxo-3-pyridazinyl)phenyl]acetamide], the half-life (in general, how long it takes for the measured level to halve) in series [1] is approximately 72 h.
As to `CC(=O)Nc1ccc(C2=NNC(=O)C[C@H]2C)cc1` [OR-1896, (R)-N-[4-(1,4,5,6-tetrahydro-4-methyl-6-oxo-3-pyridazinyl)phenyl]acetamide], the half-life in series [2] is approximately 77 h. Besides, in series [2] (FIG. 1), the “time plasma concentrations are detectable after the infusion” value was determined as 12 days. Further, the fraction unbound with plasma proteins is approximately 0.7.
For `C[C@@H]1CC(=O)NN=C1c1ccc(NN=C(C#N)C#N)cc1` [levosimendan], the half-life in series [2] is approximately 1.3 h. For the same compound, the “plasma concentrations after discontinuation of infusion” value in series [2] (one day after discontinuation) is recorded as “not detectable one day after the discontinuation of infusion”. The fraction unbound with plasma proteins is 0.02. Moreover, in series [3], the “all-cause mortality (0-14 days), Kaplan Meier survival curves” value was “survival curves are clearly diverging throughout the observation period”.

The values are drawn from patent publication US20040180895A1, “Use of a pyridazinone derivative” (priority 2001, published 2004).
